Reference: US10538674B2, “Method of forming anti-rust or anti-bacterial film containing tannic acid derivatives” (NATIONAL INSTITUTE FOR MATERIALS SCIENCE, priority 2014, dated 2020)

Experiments:
colon bacilli (E. Coli) = assay: Pasteurization/Sterilization Testing 1: E. Coli scattered on film on glass substrate; assay type: cell-based; details: drop-cast film on glass substrate, room temperature, 24 hours after scattering, 0 hour count 1.2×10^5
Method: Using TA (Comparative Example 1), TA(C6)10 (Example 6), TA(C10)10 (Example 2), and TA(C16)10 (Example 8), respectively, a film was formed by drop-casting on a 5 cm×5 cm glass substrate. Preparing a THF solution, drop-casting of the THF solution in an amount of 1.1 mg/cm^2 was followed by annealing under the conditions of 1 hour and 80° C. to prepare a drop-cast film. The TA (Comparative Example 1), TA(C6)10 (Example 6), TA(C10)10 (Example 2), and TA(C16)10 (Example 8) film was formed on the glass substrate by the aforesaid method, and colon bacilli (E. Coli) were scattered on it to observe changes in the surface of the film at room temperature. FIG. 18 is a graph representative of the results of proliferation of bacteria on the film. The cell count of colon bacilli scattered at the start (0 hour) was 1.2×10^5 CFU/mL. After the lapse of 24 hours, that cell count increased to 1.4×10^7 CFU/mL for the TA coated (control) film. […] A problem with tannic acid—known so far to be capable of pasteurization in the form of an aqueous solution—was that a tannic acid film is wrinkled up, running short of durability. […] It is here to be noted that the unit CFU/mL is an abbreviation of a colony forming unit indicative of a quantitative unit used in the inspection of bacteria in foods or a unit of the quantity of bacteria. […]

[1] = test system: methicillin-resistant Staphylococcus Aureus (MRSA); assay: Pasteurization/Sterilization Testing 1: MRSA scattered on film on glass substrate; assay type: cell-based; details: drop-cast film on glass substrate, 24 hours after scattering; 0 hour count 1.2 × 10^5
[2] = test system: golden staphs (S. Aureus); assay: Pasteurization/Sterilization Testing 1: S. Aureus scattered on film on glass substrate; assay type: cell-based; details: drop-cast film on glass substrate, 24 hours after scattering; 0 hour count 1.1 × 10^5
[3] = Solubility upon addition to water and chloroform; assay type: physicochemical
Source text: Tannic acid powders (WAKO, 203-06331) were kept at the ready. FIG. 2(a) is a photograph taken of the external view of tannic acid powders, FIG. 2(b) is a photograph of the external view of tannic acid powders upon added to water, and FIG. 2(c) is a photograph of the external view of tannic acid powders upon added to chloroform. As shown in FIG. 2(a), the tannic acid powders were ocher powders. […] This tannic acid material was used for Comparative Example 1. FIG. 4(a) is a photograph taken of the external view of the derivative, and FIGS. 4(b) and 4(c) are photographs taken of the external views of the derivative upon added to water and chloroform, respectively.

For O=C(OC[C@H]1O[C@@H](OC(=O)c2cc(O)c(O)c(OC(=O)c3cc(O)c(O)c(O)c3)c2)[C@H](OC(=O)c2cc(O)c(O)c(OC(=O)c3cc(O)c(O)c(O)c3)c2)[C@@H](OC(=O)c2cc(O)c(O)c(OC(=O)c3cc(O)c(O)c(O)c3)c2)[C@@H]1OC(=O)c1cc(O)c(O)c(OC(=O)c2cc(O)c(O)c(O)c2)c1)c1cc(O)c(O)c(OC(=O)c2cc(O)c(O)c(O)c2)c1 [TA, tannic acid], the “Cell count of E. Coli, 24 hours” value (colon bacilli (E. Coli); listed as Control) was 1.4 × 10^7 CFU/mL, the “Cell count of E. Coli, 24 hours” value (colon bacilli (E. Coli); listed as TA coated (control)) was 1.4×10^7 CFU/mL and the “Cell count of MRSA, 24 hours” value [1] was 1.7 × 10^5 CFU/mL. For the same molecule, the “Cell count of S. Aureus, 24 hours” value [2] was 1.1 × 10^5 CFU/mL, the Solubility in chloroform ([3]; upon added to chloroform (CHCl3)) was “not in chloroform” and the Solubility in water ([3]; upon added to water) was “dissolved in water”.
